Measurements taken from ChEMBL document CHEMBL5226286, “The application of isatin-based multicomponent-reactions in the quest for new bioactive and druglike molecules” (Eur J Med Chem, 2021).
≈ marks a conversion by molar mass, not a printed value.

Columns and labels:
[1] = test system: Proteus mirabilis; assay: microbe, parasite or virus in culture; details: PTCC 1776
Description: Antimicrobial activity against Proteus mirabilis PTCC 1776 by broth disk diffusion microdilution method

[2] = test system: Staphylococcus epidermidis; assay: microbe, parasite or virus in culture; details: PTCC 1435
Description: Antimicrobial activity against Staphylococcus epidermidis PTCC 1435 by broth disk diffusion microdilution method

[3] = test system: CCRF-CEM; assay: Antiproliferative activity against human CCRF-CEM cells; format: functional, cell-based
[4] = test system: SK-OV-3; assay: Antiproliferative activity against human SK-OV-3 cells; format: functional, cell-based
[5] = test system: Tobacco mosaic virus; assay: Antiviral activity against Tobacco mosaic virus assessed as protection effect relative to control; format: functional
[6] = test system: Tobacco mosaic virus; assay: Antiviral activity against Tobacco mosaic virus assessed as curative effect relative to control; format: functional
[7] = test system: Tobacco mosaic virus; assay: Antiviral activity against Tobacco mosaic virus assessed as inactivation effect relative to control; format: functional
[8] = test system: K562; assay: Antiproliferative activity against human K562 cells; format: functional, cell-based
[9] = test system: A549; assay: Antiproliferative activity against human A549 cells; format: functional, cell-based
[10] = test system: PC-3; assay: Antiproliferative activity against human PC-3 cells; format: functional, cell-based
[11] = test system: HCT-116; assay: Antiproliferative activity against human HCT-116 cells; format: functional, cell-based
[12] = test system: HepG2; assay: cells; format: functional, cell-based; details: Homo sapiens
[13] = test system: Candida tropicalis; assay: Antifungal activity against Candida tropicalis; format: functional
[14] = test system: Aspergillus fumigatus; assay: Antifungal activity against Aspergillus fumigatus RCMB 02568; format: functional
[15] = test system: Saccharomyces cerevisiae; assay: Antifungal activity against Saccharomyces cerevisiae MTCC 170; format: functional
[16] = test system: Geotrichum candidum; assay: Antifungal activity against Geotrichum candidum RCMB 05097 assessed as zone of inhibition; format: functional
[17] = test system: Leishmania major; assay: Antileishmanial activity against Leishmania major promastigotes incubated for 72 hrs by micrscopic analysis; format: functional
[18] = test system: Geotrichum candidum; assay: Antifungal activity against Geotrichum candidum RCMB 05097; format: functional
[19] = test system: Nakaseomyces glabratus; assay: Antifungal activity against Candida glabrata; format: functional
[20] = test system: Candida albicans; assay: Antifungal activity against Candida albicans MTCC 227; format: functional
[21] = test system: Syncephalastrum racemosum; assay: Antifungal activity against Syncephalastrum racemosum RCMB 05922; format: functional
[22] = test system: Candida albicans; assay: Antifungal activity against Candida albicans RCMB 05036 assessed as zone of inhibition; format: functional
[23] = test system: Candida albicans; assay: Antifungal activity against Candida albicans; format: functional
[24] = test system: Aspergillus fumigatus; assay: Antifungal activity against Aspergillus fumigatus RCMB 02568 assessed as zone of inhibition; format: functional
[25] = test system: Candida albicans; assay: Antifungal activity against Candida albicans RCMB 05036; format: functional
[26] = test system: Syncephalastrum racemosum; assay: Antifungal activity against Syncephalastrum racemosum RCMB 05922 assessed as zone of inhibition; format: functional
[27] = target: T1, NAD-dependent protein deacetylase sirtuin-2 (Homo sapiens, UniProt Q8IXJ6); assay: Inhibition of sirtuin 2 (unknown origin)
T1 sequence (Q8IXJ6 whole entry): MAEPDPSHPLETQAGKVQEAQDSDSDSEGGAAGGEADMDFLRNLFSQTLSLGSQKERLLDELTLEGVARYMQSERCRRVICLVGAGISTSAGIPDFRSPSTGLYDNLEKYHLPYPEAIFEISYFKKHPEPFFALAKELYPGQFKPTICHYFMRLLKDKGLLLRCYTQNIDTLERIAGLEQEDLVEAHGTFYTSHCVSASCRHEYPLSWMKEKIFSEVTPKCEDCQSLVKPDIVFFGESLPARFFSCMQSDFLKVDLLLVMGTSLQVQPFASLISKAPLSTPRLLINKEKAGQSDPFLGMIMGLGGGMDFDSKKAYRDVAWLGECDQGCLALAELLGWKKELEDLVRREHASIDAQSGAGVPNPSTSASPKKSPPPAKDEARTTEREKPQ

[28] = test system: HeLa; assay: Growth inhibition of human HeLa cells at 20 micromol relative to control; format: functional; details: dose 20 µmol
[29] = test system: MDA-MB-231; assay: Growth inhibition of human MDA-MB-231 cells at 20 micromol relative to control; format: functional; details: dose 20 µmol
[30] = test system: HepG2; assay: Growth inhibition of human HepG2 cells at 20 micromol relative to control; format: functional; details: dose 20 µmol
[31] = test system: HepG2; assay: Antiproliferative activity against human HepG2 cells by MTT reduction assay; format: functional, cell-based
[32] = test system: SK-N-SH; assay: Antiproliferative activity against human SK-N-SH cells by MTT reduction assay; format: functional, cell-based
[33] = test system: MCF7; assay: Antiproliferative activity against human MCF7 cells by MTT reduction assay; format: functional, cell-based
[34] = test system: A549; assay: Antiproliferative activity against human A549 cells by MTT reduction assay; format: functional, cell-based
[35] = test system: HeLa; assay: Cytotoxicity against human HeLa cells incubated for 24 hrs by MTT reduction assay; format: functional, cell-based
[36] = test system: Staphylococcus aureus; assay: Antibacterial activity against Staphylococcus aureus by agar well diffusion method; format: functional
[37] = test system: Escherichia coli; assay: Antibacterial activity against Escherichia coli by agar well diffusion method; format: functional
[38] = test system: Bacillus subtilis; assay: Antibacterial activity against Bacillus subtilis by agar well diffusion method; format: functional
[39] = test system: Pseudomonas aeruginosa; assay: Antibacterial activity against multidrug resistant Pseudomonas aeruginosa 034; format: functional
[40] = test system: Pseudomonas aeruginosa; assay: Antibacterial activity against Pseudomonas aeruginosa ATCC 27853; format: functional
[41] = test system: Pseudomonas aeruginosa; assay: Antibacterial activity against Pseudomonas aeruginosa No.010; format: functional
[42] = test system: Pseudomonas aeruginosa; assay: Antibacterial activity against multidrug resistant Pseudomonas aeruginosa 025; format: functional

Compound: CC1(C)CC(=O)C(=C2SC(N)=C(C#N)C3(S2)C(=O)Nc2ccc(Cl)cc23)C(=O)C1 (centres undefined)
- MIC [1]: 16 µg/mL (≈ 35.9 µM)
- MIC [2]: 2 µg/mL (≈ 4.48 µM)

Compound: Cc1ccccc1/C=C1\CNC[C@@]2(C1=O)[C@@H](c1ccccc1C)C1CCCN1[C@]21C(=O)Nc2ccccc21 (some centres undefined)
- IC50 [3]: 3.6 µM
- IC50 [4]: 35.8 µM

Compound: CN1C[C@@H](c2ccccc2)[C@@]2(Oc3cc(O)ccc3C2=O)[C@@]12C(=O)N(Cc1ccccc1)c1ccccc12
- Activity [5]: 50.9%
- Activity [6]: 52.3%
- Activity [7]: 57.1%

Compound: Cc1noc([C@H]2[C@H](c3ccc(Cl)cc3Cl)CN(C)[C@]23C(=O)Nc2ccc(Cl)cc23)c1[N+](=O)[O-]
- IC50 [8]: 10.7 µM
- IC50 [9]: 21.5 µM
- IC50 [10]: 13.1 µM

Compound: CC1(C)S[C@@H]2[C@H](NC(=O)Cc3ccccc3)C(=O)N2[C@H]1C(=O)O [PENICILLIN G]
- MIC [1]: 16 µg/mL (≈ 47.8 µM)
- MIC [2]: 1 µg/mL (≈ 2.99 µM)

Compound: CC1(C)CC(=O)C(=C2SC(N)=C(C#N)C3(S2)C(=O)N(Cc2ccc(Cl)cc2Cl)c2ccccc23)C(=O)C1 (centres undefined)
- MIC [1]: 16 µg/mL (≈ 28 µM)
- MIC [2]: 8 µg/mL (≈ 14 µM)

Compound: O=C(c1c[nH]c2ccccc12)[C@@H]1[C@@H](c2ccc(C(F)(F)F)cc2)[C@@H]2CSCN2[C@@]12C(=O)Nc1ccccc12
- IC50 [11]: 7 µM
- IC50 [12]: 5.5 µM
- IC50 [10]: 6 µM

Compound: C[C@@H]1[C@H](O)[C@@H](C)/C=C/C=C/C=C/C=C/C=C/C=C/C=C/[C@H](O[C@@H]2O[C@H](C)[C@@H](O)[C@H](N)[C@@H]2O)C[C@@H]2O[C@](O)(C[C@@H](O)C[C@@H](O)[C@H](O)CC[C@@H](O)C[C@@H](O)CC(=O)O[C@H]1C)C[C@H](O)[C@H]2C(=O)O [AMPHOTERICIN B]
- MIC [13]: 12.5 µg/mL (≈ 13.5 µM)
- MIC [14]: 0.015 µg/mL (≈ 0.0162 µM)
- MIC [15]: 100 µg/mL (≈ 108 µM)
- diameter of the inhibition zone (DIZ) [16]: 29 mm
- MIC [17]: 0.49 µM (≈ 0.453 µg/mL)
- MIC [18]: 0.015 µg/mL (≈ 0.0162 µM)
- MIC [19]: 12.5 µg/mL (≈ 13.5 µM)
- MIC [20]: 100 µg/mL (≈ 108 µM)
- MIC [21]: 1.95 µg/mL (≈ 2.11 µM)
- diameter of the inhibition zone (DIZ) [22]: 26 mm
- MIC [23]: 12.5 µg/mL (≈ 13.5 µM)
- diameter of the inhibition zone (DIZ) [24]: 23 mm
- MIC [25]: 0.06 µg/mL (≈ 0.0649 µM)
- diameter of the inhibition zone (DIZ) [26]: 22.1 mm

Compound: COc1ccc(-n2cc(CN3C(=O)C4(C(C#N)=C(N)OC5=C4C(=O)CC(C)(C)C5)c4ccccc43)nn2)cc1 (centres undefined)
- MIC [15]: 64 µg/mL (≈ 122 µM)
- MIC [20]: 128 µg/mL (≈ 245 µM)

Compound: COc1ccc(-n2cc(CN3C(=O)C4(C(C#N)=C(N)OC5=C4C(=O)CCC5)c4ccccc43)nn2)cc1 (centres undefined)
- MIC [15]: 64 µg/mL (≈ 129 µM)
- MIC [20]: 128 µg/mL (≈ 259 µM)

Compound: CNCC(=O)N[C@@H](CO)C(=O)N[C@H]1[C@H](O)[C@@H](O)[C@H](n2ccc(N)nc2=O)O[C@@H]1C(N)=O [NINGNANMYCIN]
- Activity [5]: 57.1%
- Activity [6]: 55.9%
- Activity [7]: 58.8%

Compound: CCOC(=O)C1=C(N)Oc2c(c(=O)oc3cc(Cl)ccc23)C12C(=O)Nc1ccc(C)cc12 (centres undefined)
- IC50 [27]: 118 µM

Compound: N#CC1=C(N)OC2=C(CSC/C2=C/c2ccc(C(F)(F)F)cc2)C12C(=O)Nc1ccccc12 (centres undefined)
- growth inhibition (GI) [28]: 83.2%
- growth inhibition (GI) [29]: 61.3%
- growth inhibition (GI) [30]: 73.1%

Compound: Cc1ccc(/C=C2/CN(C)CC3=C2OC(N)=C(C#N)C32C(=O)Nc3ccccc32)cc1C (centres undefined)
- growth inhibition (GI) [28]: 87.1%
- growth inhibition (GI) [29]: 64.9%
- growth inhibition (GI) [30]: 70.2%

Compound: CCOC(=O)C1=C(N)Oc2cc(C)oc(=O)c2C12C(=O)N(Cc1ccccc1)c1ccccc12 (centres undefined)
- IC50 [27]: 126 µM

Compound: Cc1cc2c(cc1C)C(Cl)=C(C1C3CCCN3C3(C(=O)Nc4ccc(I)cc43)C1C(=O)c1ccccc1)CCC2 (centres undefined)
- IC50 [31]: 8.7 µM
- IC50 [32]: 5 µM
- IC50 [33]: 8.3 µM
- IC50 [34]: 15.9 µM
- IC50 [35]: 3.8 µM

Compound: O=C1CCCC2=C1C1(C(=O)N2c2ccc(Cl)cc2)C2=C(Nc3ccc([N+](=O)[O-])cc31)c1ccccc1C2=O (centres undefined)
- MIC [36]: 32 µg/mL (≈ 61.1 µM)
- MIC [37]: 128 µg/mL (≈ 244 µM)
- MIC [38]: 32 µg/mL (≈ 61.1 µM)

Compound: N=C(N)c1ccc(OCCCCCOc2ccc(C(=N)N)cc2)cc1 [PENTAMIDINE]
- MIC [17]: 5.22 µM (≈ 1.78 µg/mL)

Compound: CCn1cc(C(=O)O)c(=O)c2cc(F)c(N3CCNCC3)cc21 [NORFLOXACIN]
- MIC [39]: > 64 µg/mL
- MIC [40]: 2 µg/mL (≈ 6.26 µM)
- MIC [41]: 2 µg/mL (≈ 6.26 µM)
- MIC [42]: > 64 µg/mL
